≈ marks a conversion by molar mass, not a printed value.
Columns and labels:
Assay in all cases: In-vitro test, inhibitory concentration by dilution series
Assay type in all cases: cell-based
Bacillus subtilis SG 119 = settings: SG119; I = Bacillus subtilis SG 119; step = concentration with no visible growth; read-out: Hemmkonzentration nach Verdünnung (Verdünnungsreihe) (converted)
Description: (§1) Die antibiotische Wirksamkeit erfindungsgemäßer Verbindungen wurde in der üblichen Weise durch Ermittlung der Hemmkonzentrationen nach Verdünnung ermittelt.
(§2) Die erhaltenen Ergebnisse sind in der nachstehenden Tabelle zusammengefaßt.

Citrobacter freudii = settings: XIV = Citrobacter freudii, Laborstämme; step = concentration with no visible growth; read-out: Hemmkonzentration nach Verdünnung (Verdünnungsreihe) (converted)
Description: as §1, §2

Enterobacter cloacae = settings: XIII = Enterobacter cloacae, Laborstämme; step = concentration with no visible growth; read-out: Hemmkonzentration nach Verdünnung (Verdünnungsreihe) (converted)
Description: as §1, §2

Enterokokken = settings: XI = Enterokokken, Laborstämme; step = concentration with no visible growth; read-out: Hemmkonzentration nach Verdünnung (Verdünnungsreihe) (converted)
Description: as §1, §2

Escherichia coli = settings: XII = Escherichia coli, Laborstämme; step = concentration with no visible growth; read-out: Hemmkonzentration nach Verdünnung (Verdünnungsreihe) (converted)
Description: as §1, §2

[1] = test system: Klebsiella pneumoniae SG 117; settings: SG117; VII = Klebsiella pneumoniae SG 117; step = concentration with no visible growth; read-out: Hemmkonzentration nach Verdünnung (Verdünnungsreihe) (converted)
Description: as §1, §2

Proteus vulgaris OX 19 = settings: OX19; III = Proteus vulgaris OX 19; step = concentration with no visible growth; read-out: Hemmkonzentration nach Verdünnung (Verdünnungsreihe) (converted)
Description: as §1, §2

[2] = test system: Pseudomonas aeruginosa NCTC 10701; settings: NCTC10701; IV = Pseudomonas aeruginosa NCTC 10701; step = concentration with no visible growth; read-out: Hemmkonzentration nach Verdünnung (Verdünnungsreihe) (converted)
Description: as §1, §2

[3] = test system: Pseudomonas aeruginosa SG 137; settings: SG137; V = Pseudomonas aeruginosa SG 137; step = concentration with no visible growth; read-out: Hemmkonzentration nach Verdünnung (Verdünnungsreihe) (converted)
Description: as §1, §2

[4] = test system: Salmonella gallinarium ATCC 9184; settings: ATCC9184; VI = Salmonella gallinarium ATCC 9184; step = concentration with no visible growth; read-out: Hemmkonzentration nach Verdünnung (Verdünnungsreihe) (converted)
Description: as §1, §2

[5] = test system: Serratia marcescens SG 621; settings: SG621; VIII = Serratia marcescens SG 621; step = concentration with no visible growth; read-out: Hemmkonzentration nach Verdünnung (Verdünnungsreihe) (converted)
Description: as §1, §2

[6] = test system: Staphylococcus aureus SG 511; settings: SG511; II = Staphylococcus aureus SG 511; step = concentration with no visible growth; read-out: Hemmkonzentration nach Verdünnung (Verdünnungsreihe) (converted)
Description: as §1, §2

Staphylococcus aureus = settings: IX = Staphylococcus aureus, Laborstämme; step = concentration with no visible growth; read-out: Hemmkonzentration nach Verdünnung (Verdünnungsreihe) (converted)
Description: as §1, §2

[7] = test system: Staphylococcus epidermidis; settings: X = Staphylococcus epidermidis, Laborstämme; step = concentration with no visible growth; read-out: Hemmkonzentration nach Verdünnung (Verdünnungsreihe) (converted)
Description: as §1, §2

CCc1cc2c(OC(=O)OCC(C)C)c(C(=O)N[C@@H](C(=O)N[C@@H]3C(=O)N4[C@@H]3SC(C)(C)[C@@H]4C(=O)O)c3ccccc3)cnc2cc1CN1CCOCC1 [Beisp. 14, 6-[D-(-)-α-([4'-Isobutoxycarbonyloxy-6'-ethyl-7'-morpholinomethylen-chinolinoyl-3']-carboxamido)-α-phenylacetamido]-penicillansäure-Natriumsalz]
MIC (Bacillus subtilis SG 119): 6.25 µM (≈ 4.67 µg/mL) | MIC (Citrobacter freudii): 3.12 µM (≈ 2.33 µg/mL) | MIC (Enterobacter cloacae): 3.12 µM (≈ 2.33 µg/mL) | MIC (Enterokokken): 6.25 µM (≈ 4.67 µg/mL) | MIC (Escherichia coli): 0.78 µM (≈ 0.583 µg/mL) | MIC [1]: 0.78 µM (≈ 0.583 µg/mL) | MIC (Proteus vulgaris OX 19): 0.2 µM (≈ 0.15 µg/mL) | MIC [2]: 0.78 µM (≈ 0.583 µg/mL) | MIC [3]: 6.25 µM (≈ 4.67 µg/mL) | MIC [4]: 1.56 µM (≈ 1.17 µg/mL) | MIC [5]: 0.78 µM (≈ 0.583 µg/mL) | MIC [6]: 0.78 µM (≈ 0.583 µg/mL) | MIC (Staphylococcus aureus): 3.12 µM (≈ 2.33 µg/mL) | MIC [7]: 3.12 µM (≈ 2.33 µg/mL)

CCc1cc2c(OC(=O)OCC(C)C)c(C(=O)N[C@@H](C(=O)N[C@@H]3C(=O)N4[C@@H]3SC(C)(C)[C@@H]4C(=O)O)c3ccccc3)cnc2cc1COc1ccc(C(C)=O)cc1 [Beisp. 15, 6-[D-(-)-α-([4'-Isobutoxycarbonyloxy-6'-ethyl-7'-(4''-acetyl)-phenoxymethylen-chinolinoyl-3']-carboxamido)-α-phenylacetamido]-penicillansäure-Natriumsalz]
MIC (Bacillus subtilis SG 119): 3.12 µM (≈ 2.49 µg/mL) | MIC (Citrobacter freudii): 3.12 µM (≈ 2.49 µg/mL) | MIC (Enterobacter cloacae): 3.12 µM (≈ 2.49 µg/mL) | MIC (Enterokokken): 6.25 µM (≈ 4.98 µg/mL) | MIC (Escherichia coli): 1.56 µM (≈ 1.24 µg/mL) | MIC [1]: 0.78 µM (≈ 0.622 µg/mL) | MIC (Proteus vulgaris OX 19): 0.39 µM (≈ 0.311 µg/mL) | MIC [2]: 3.12 µM (≈ 2.49 µg/mL) | MIC [3]: 3.12 µM (≈ 2.49 µg/mL) | MIC [4]: 1.56 µM (≈ 1.24 µg/mL) | MIC [5]: 0.78 µM (≈ 0.622 µg/mL) | MIC [6]: 0.78 µM (≈ 0.622 µg/mL) | MIC (Staphylococcus aureus): 6.25 µM (≈ 4.98 µg/mL) | MIC [7]: 3.12 µM (≈ 2.49 µg/mL)

CCc1cc2c(OC(=O)OCC(C)C)c(C(=O)N[C@@H](C(=O)N[C@@H]3C(=O)N4[C@@H]3SC(C)(C)[C@@H]4C(=O)O)c3ccccc3)cnc2cc1COC(C)C [Beisp. 21, 6-[D-(-)-α-([4'-Isobutoxycarbonyloxy-6'-ethyl-7'-isopropoxymethylen-chinolinoyl-3']-carboxamido)-α-phenylacetamido]-penicillansäure-Natriumsalz]
MIC (Bacillus subtilis SG 119): 1.56 µM (≈ 1.12 µg/mL) | MIC (Citrobacter freudii): 6.25 µM (≈ 4.51 µg/mL) | MIC (Enterobacter cloacae): 6.25 µM (≈ 4.51 µg/mL) | MIC (Enterokokken): 12.5 µM (≈ 9.01 µg/mL) | MIC (Escherichia coli): 1.56 µM (≈ 1.12 µg/mL) | MIC [1]: 0.78 µM (≈ 0.562 µg/mL) | MIC (Proteus vulgaris OX 19): 0.39 µM (≈ 0.281 µg/mL) | MIC [2]: 0.78 µM (≈ 0.562 µg/mL) | MIC [3]: 6.25 µM (≈ 4.51 µg/mL) | MIC [4]: 3.12 µM (≈ 2.25 µg/mL) | MIC [5]: 1.56 µM (≈ 1.12 µg/mL) | MIC [6]: 1.56 µM (≈ 1.12 µg/mL) | MIC (Staphylococcus aureus): 12.5 µM (≈ 9.01 µg/mL) | MIC [7]: 6.25 µM (≈ 4.51 µg/mL)

CC1(C)S[C@@H]2[C@H](NC(=O)[C@H](N)c3ccccc3)C(=O)N2[C@H]1C(=O)O [Ampicillin, reference compound]
MIC (Bacillus subtilis SG 119): 0.2 µM (≈ 0.0699 µg/mL) | MIC (Citrobacter freudii): > 200 µM | MIC (Enterobacter cloacae): > 200 µM | MIC (Enterokokken): 6.25 µM (≈ 2.18 µg/mL) | MIC (Escherichia coli): 12.5 µM (≈ 4.37 µg/mL) | MIC [1]: 12.5 µM (≈ 4.37 µg/mL) | MIC (Proteus vulgaris OX 19): 12.5 µM (≈ 4.37 µg/mL) | MIC [2]: 200 µM (≈ 69.9 µg/mL) | MIC [3]: > 200 µM | MIC [4]: 0.78 µM (≈ 0.273 µg/mL) | MIC [5]: 50 µM (≈ 17.5 µg/mL) | MIC [6]: 0.78 µM (≈ 0.273 µg/mL) | MIC (Staphylococcus aureus): 12.5 µM (≈ 4.37 µg/mL) | MIC [7]: 6.25 µM (≈ 2.18 µg/mL)

CCCCOCc1cc2ncc(C(=O)N[C@@H](C(=O)N[C@@H]3C(=O)N4[C@@H]3SC(C)(C)[C@@H]4C(=O)O)c3ccccc3)c(OC(=O)OCC)c2cc1CC [Beisp. 4, 6-[D-(-)-α-([4'-Ethoxycarbonyloxy-6'-ethyl-7'-n-butoxymethylen-chinolinoyl-3']-carboxamido)-α-phenylacetamido]-penicillansäure-Natriumsalz]
MIC (Bacillus subtilis SG 119): 0.39 µM (≈ 0.276 µg/mL) | MIC (Citrobacter freudii): 6.25 µM (≈ 4.42 µg/mL) | MIC (Enterobacter cloacae): 3.12 µM (≈ 2.21 µg/mL) | MIC (Enterokokken): 6.25 µM (≈ 4.42 µg/mL) | MIC (Escherichia coli): 1.56 µM (≈ 1.1 µg/mL) | MIC [1]: 1.56 µM (≈ 1.1 µg/mL) | MIC (Proteus vulgaris OX 19): 0.78 µM (≈ 0.551 µg/mL) | MIC [2]: 1.56 µM (≈ 1.1 µg/mL) | MIC [3]: 3.12 µM (≈ 2.21 µg/mL) | MIC [4]: 1.56 µM (≈ 1.1 µg/mL) | MIC [5]: 1.56 µM (≈ 1.1 µg/mL) | MIC [6]: 0.78 µM (≈ 0.551 µg/mL) | MIC (Staphylococcus aureus): 12.5 µM (≈ 8.84 µg/mL) | MIC [7]: 3.12 µM (≈ 2.21 µg/mL)

COc1ccc2ncc(C(=O)N[C@@H](C(=O)N[C@@H]3C(=O)N4[C@@H]3SC(C)(C)[C@@H]4C(=O)O)c3ccccc3)c(O)c2c1 [Beisp. 9, 6-[D-(-)-α-([4'-Hydroxy-6'-methoxy-chinolinoyl-3']-carboxamido)-α-phenylacetamido]-penicillansäure-Natriumsalz]
MIC (Bacillus subtilis SG 119): 1.56 µM (≈ 0.859 µg/mL) | MIC (Citrobacter freudii): 25 µM (≈ 13.8 µg/mL) | MIC (Enterobacter cloacae): 25 µM (≈ 13.8 µg/mL) | MIC (Enterokokken): 25 µM (≈ 13.8 µg/mL) | MIC (Escherichia coli): 3.12 µM (≈ 1.72 µg/mL) | MIC [1]: 1.56 µM (≈ 0.859 µg/mL) | MIC (Proteus vulgaris OX 19): 0.39 µM (≈ 0.215 µg/mL) | MIC [2]: 0.39 µM (≈ 0.215 µg/mL) | MIC [3]: 25 µM (≈ 13.8 µg/mL) | MIC [4]: 1.56 µM (≈ 0.859 µg/mL) | MIC [5]: 1.56 µM (≈ 0.859 µg/mL) | MIC [6]: 1.56 µM (≈ 0.859 µg/mL) | MIC (Staphylococcus aureus): 12.5 µM (≈ 6.88 µg/mL) | MIC [7]: 6.25 µM (≈ 3.44 µg/mL)

CCOCc1cc2ncc(C(=O)N[C@@H](C(=O)N[C@@H]3C(=O)N4[C@@H]3SC(C)(C)[C@@H]4C(=O)O)c3ccccc3)c(OC(=O)OCC)c2cc1CC [Beisp. 6, 6-[D-(-)-α-([4'-Ethoxycarbonyloxy-6'-ethyl-7'-ethoxy-methylen-chinolinoyl-3']-carboxamido)-α-phenylacetamido]-penicillansäure-Natriumsalz]
MIC (Bacillus subtilis SG 119): 1.56 µM (≈ 1.06 µg/mL) | MIC (Citrobacter freudii): 3.12 µM (≈ 2.12 µg/mL) | MIC (Enterobacter cloacae): 3.12 µM (≈ 2.12 µg/mL) | MIC (Enterokokken): 12.5 µM (≈ 8.48 µg/mL) | MIC (Escherichia coli): 1.56 µM (≈ 1.06 µg/mL) | MIC [1]: 0.78 µM (≈ 0.529 µg/mL) | MIC (Proteus vulgaris OX 19): 0.39 µM (≈ 0.265 µg/mL) | MIC [2]: 0.78 µM (≈ 0.529 µg/mL) | MIC [3]: 6.25 µM (≈ 4.24 µg/mL) | MIC [4]: 1.56 µM (≈ 1.06 µg/mL) | MIC [5]: 1.56 µM (≈ 1.06 µg/mL) | MIC [6]: 1.56 µM (≈ 1.06 µg/mL) | MIC (Staphylococcus aureus): 12.5 µM (≈ 8.48 µg/mL) | MIC [7]: 6.25 µM (≈ 4.24 µg/mL)
